Results from US20230174484A1, “ANTAGONISTS OF GPR39 PROTEIN” (Oregon Health & Science University, priority 2020, published 2023).

Biological target: T1, human GPR39 receptor (Homo sapiens, UniProt O43194)
T1 construct: PC3 Cells, Expressing the Endogenous Human GPR39 Receptor; endogenous in cells; host or cells: PC3 (human prostate adenocarcinoma) cells
T1 sequence (O43194 1-453): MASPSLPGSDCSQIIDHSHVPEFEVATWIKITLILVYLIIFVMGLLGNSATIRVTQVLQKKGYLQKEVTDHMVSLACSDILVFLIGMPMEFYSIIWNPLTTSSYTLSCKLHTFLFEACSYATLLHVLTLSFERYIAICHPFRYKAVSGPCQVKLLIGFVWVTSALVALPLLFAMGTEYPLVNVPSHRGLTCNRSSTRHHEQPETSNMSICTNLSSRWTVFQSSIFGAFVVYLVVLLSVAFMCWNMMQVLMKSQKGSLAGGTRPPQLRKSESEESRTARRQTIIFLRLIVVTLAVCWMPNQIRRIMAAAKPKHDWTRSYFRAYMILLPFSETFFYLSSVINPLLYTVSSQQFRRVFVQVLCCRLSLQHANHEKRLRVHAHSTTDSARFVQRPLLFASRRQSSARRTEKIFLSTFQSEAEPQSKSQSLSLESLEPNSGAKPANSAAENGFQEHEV
Assay: Measurement of intracellular calcium response in PC3 cells (FLIPR), antagonism of the C3 agonist response
Assay type: cell-based
Details: functional pKi (modified Cheng-Prusoff), inhibition of the C3 (TC-G 1008) response at EC90, 30 μM ZnCl2, read-out: fpKi activity
Method in brief: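 PC3 cells with endogenous human GPR39 were loaded with Calcium-6 and read by FLIPR, with compounds tested in buffer with 30 μM final ZnCl2 and 0.32% DMSO. Peak Ca2+ signal was scored as % inhibition of the EC90 C3 response, fitted by four-parameter logistic. Functional pKi was derived via the modified Cheng-Prusoff equation.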

Ki, 0.0631 to 0.251 µM:
O=C(Nc1ccc(C(=O)N2CCS(=O)(=O)CC2)c(N2CCC(F)(F)C2)c1)C1CC1 [Example 184, N-[3-(3,3-difluoropyrrolidin-1-yl)-4-(1,1-dioxo-1,4-thiazinane-4-carbonyl)phenyl]cyclopropanecarboxamide]
CN1CCN(C(=O)c2ccc(NC(=O)C3CC3)cc2N2CCCC2)C(c2cncc(Cl)c2)C1 (racemic) [Example 172, N-[4-[2-(5-chloropyridin-3-yl)-4-methylpiperazine-1-carbonyl]-3-pyrrolidin-1ylphenyl]cyclopropanecarboxamide]
CN1CCN(C(=O)c2ccc(NC(=O)C3CC3)cc2N2CCC3(COC3)C2)C(c2cccc(Cl)c2)C1 (stereo not shown) [Example 212, N-[4-[2-(3-chlorophenyl)-4-methylpiperazine-1-carbonyl]-3-(2-oxa-7-azaspiro[3.4]octan-7-yl)phenyl]cyclopropanecarboxamide]
O=C(Nc1ccc(C(=O)N2CCN(Cc3ncco3)CC2c2ccccc2)c(N2CCCCCC2)c1)C1CC1 (stereo not shown) [Example 83, N-[3-(azepan-1-yl)-4-[4-(1,3-oxazol-2-ylmethyl)-2-phenylpiperazine-1-carbonyl]phenyl]cyclopropanecarboxamide]
Cn1c(Sc2ccccc2)nnc1-c1ccc(NC(=O)C2CC2)cc1N1CCCCCC1 [Example 110, N-[3-(azepan-1-yl)-4-(4-methyl-5-phenylsulfanyl-1,2,4-triazol-3-yl)phenyl]cyclopropanecarboxamide]
CN1CCN(C(=O)c2ccc(-c3nnc(C4CC4)[nH]3)cc2N2CCCC2)C(c2ccccc2)C1 (single isomer, unassigned) [Example 151a, (2R or 2S) [4-(5-cyclopropyl-4H-1,2,4-triazol-3-yl)-2-pyrrolidin-1-ylphenyl]-(4-methyl-2-phenylpiperazin-1-yl)methanone]
CN1CCN(C(=O)c2ccc(NC(=O)C3CC3)cc2N2CCCCCC2)CC1 [Example 49, N-(3-(azepan-1-yl)-4-(4-methylpiperazine-1-carbonyl)phenyl)cyclopropanecarboxamide]
O=C(Nc1ccc(C(=O)N2CCCCC2c2nnnn2Cc2ccccc2)c(N2CCCCCC2)c1)C1CC1 (stereo not shown) [Example 54, N-[3-(azepan-1-yl)-4-[2-(1-benzyltetrazol-5-yl)piperidine-1-carbonyl]phenyl]cyclopropanecarboxamide]

Ki, 0.316 to 1 µM:
CC1CC(C)CN(c2cc(NC(=O)C3CC3)ccc2C(=O)N2CCN(C)CC2c2ccccc2)C1 (single isomer, unassigned) [Example 68b, Syn 2R or 2S N-[3-[3,5-dimethylpiperidin-1-yl]-4-(4-methyl-2-phenylpiperazine-1-carbonyl)phenyl] cyclopropanecarboxamide]
CC1CC(C)CN(c2cc(NC(=O)C3CC3)ccc2-c2nnc(Sc3ccccc3)n2CCN(C)C)C1 (stereo not shown) [Example 115, N-[4-[4-[2-(dimethylamino)ethyl]-5-phenylsulfanyl-1,2,4-triazol-3-yl]-3-(3,5-dimethylpiperidin-1-yl)phenyl]cyclopropanecarboxamide]
CCCN1CCN(C(=O)c2ccc(NC(=O)C3CC3(F)F)cc2N2CCCCCC2)CC1 (stereo not shown) [Example 92]
CCCN1CCN(C(=O)c2ccc(NC(=O)C3CC3)cc2N2CC3(CCOCC3)C2)CC1 [Example 4, N-(4-(4-propylpiperazine-1-carbonyl)-3-(7-oxa-2-azaspiro[3.5]nonan-2-yl)phenyl)cyclopropane carboxamide]
CCCN1CCN(C(=O)c2ccc(NC(=O)C3CC3)cc2N2CCC(c3ccccc3)C2)CC1 (stereo not shown) [Example 5, N-(3-(3-phenylpyrrolidin-1-yl)-4-(4-propylpiperazine-1-carbonyl)phenyl) cyclopropanecarboxamide]
CN1CCN(C(=O)c2ccc(NC(=O)C3CC3)cc2N2CCCCCC2)C(C(F)(F)F)C1 (stereo not shown) [Example 75, N-[3-(azepan-1-yl)-4-[4-methyl-2-(trifluoromethyl)piperazine-1-carbonyl]phenyl]Cyclopropanecarboxamide]
CC1CN(C)CCN1C(=O)c1ccc(NC(=O)C2CC2)cc1N1CCCCCC1 (stereo not shown) [Example 37, N-[3-(azepan-1-yl)-4-(2,4-dimethylpiperazine-1-carbonyl)phenyl]cyclopropanecarboxamide]
Cn1c(-c2ccccc2)nnc1-c1ccc(NC(=O)C2CC2)cc1N1CCCCCC1 [Example 112, N-[3-(azepan-1-yl)-4-(4-methyl-5-phenyl-1,2,4-triazol-3-yl)phenyl]cyclopropanecarboxamide]

Ki, 1.26 to 6.31 µM:
CCCN1CCN(C(=O)c2ccc(NC(=O)C3CC3)cc2N2CCC(F)(F)CC2)CC1 [Example 7, N-(3-(4,4-difluoropiperidin-1-yl)-4-(4-propylpiperazine-1-carbonyl)phenyl) cyclopropanecarboxamide]
CN1CCN(C(=O)c2ccc(NC(=O)C3CC3)cc2N2CCCCCC2)C(c2ccccn2)C1 (stereo not shown) [Example 74, N-[3-(azepan-1-yl)-4-(4-methyl-2-pyridin-2-ylpiperazine-1-carbonyl)phenyl]cyclopropanecarboxamide]
CN(C)CCSc1nnc(-c2ccc(NC(=O)C3CC3)cc2N2CCCCCC2)n1C [Example 111, N-[3-(azepan-1-yl)-4-[5-[2-(dimethylamino)ethylsulfanyl]-4-methyl-1,2,4-triazol-3-yl]phenyl]Cyclopropanecarboxamide]
CN1CCN(C(=O)c2ccc(NC(=O)C3CC3)cc2N2CCCC2)C(c2cccc(F)c2)C1 (single isomer, unassigned) [Example 88b, N-[4-[2-(3-fluorophenyl)-4-methylpiperazine-1-carbonyl]-3-pyrrolidin-1-ylphenyl]cyclopropanecarboxamide]
CCCN1CCN(C(=O)c2ncc(NC(=O)C3CC3)nc2N2CCCCCC2)CC1 [Example 106, N-[6-(azepan-1-yl)-5-(4-propylpiperazine-1-carbonyl)pyrazin-2-yl]Cyclopropanecarboxamide]
CCCN1CCN(C(=O)c2ccc(NC(=O)c3ccccc3)cc2N2CCCCCC2)CC1 [Example 91, N-(3-(azepan-1-yl)-4-(4-propylpiperazine-1-carbonyl)phenyl)benzamide]
O=C(NCc1cccnc1)c1ccc(NC(=O)C2CC2)cc1N1CCCCCC1 [Example 44, 2-(azepan-1-yl)-4-(cyclopropanecarbonylamino)-N-(pyridin-3-ylmethyl)benzamide]

Ki, ≤ 0.0501 µM:
CN1CCN(C(=O)c2ccc(NC(=O)C3CC3)cc2N2CCCCCC2)C(c2cccs2)C1 (single isomer, unassigned) [Example 69b, N-(3-(azepan-1-yl)-4-(4-methyl-2-(thiophen-2-yl)piperazine-1-carbonyl)phenyl) cyclopropane carboxamide]
CCCN1CCN(C(=O)c2ccc(NC(=O)C3CC3)cc2N2CCCCCC2)C(c2ccccc2)C1 (racemic) [Example 73c, N-[3-(azepan-1-yl)-4-(2-phenyl-4-propylpiperazine-1-carbonyl)phenyl]Cyclopropanecarboxamide]
CN1CCN(C(=O)c2ccc(NC(=O)C3CC3)cc2N2CCC3(CCC3)C2)C(c2cccs2)C1 (racemic) [Example 85, N-[3-(6-azaspiro[3.4]octan-6-yl)-4-(4-methyl-2-thiophen-2-ylpiperazine-1-carbonyl)phenyl]Cyclopropanecarboxamide]
CN1CCN(C(=O)c2ccc(NC(=O)C3CC3)cc2N2CCCC2)C(c2ccccc2Cl)C1 (single isomer, unassigned) [Example 170a, (2R or 2S) N-[4-[2-(2-chlorophenyl)-4-methylpiperazine-1-carbonyl]-3-pyrrolidin-1-ylphenyl] cyclopropanecarboxamide]
Cc1nnc(-c2ccc(C(=O)N3CCC(F)(F)CC3)c(-n3ccc(C4CC4)n3)c2)[nH]1 [Example 209, [2-(3-cyclopropylpyrazol-1-yl)-4-(5-methyl-4H-1,2,4-triazol-3-yl)phenyl]-(4,4-difluoropiperidin-1-yl)methanone]
Cc1nnc(-c2ccc(C(=O)N3CCN(C)CC3c3ccccc3)c(N3CCC(C(F)(F)F)C3)c2)[nH]1 (single isomer, unassigned) [Example 177c, (2S, 3R) or (2R, 3S) or (2R, 3R) or (2S, 3S) (4-methyl-2-phenylpiperazin-1-yl)-[4-(5-methyl-4H-1,2,4-triazol-3-yl)-2-[3-(trifluoromethyl)pyrrolidin-1-yl]phenyl]methanone]
CC(C)C1CCN(c2nc(NC(=O)C3CC3)ccc2C(=O)N2CCS(=O)(=O)CC2)C1 (racemic) [Example 142, N-[5-(1,1-dioxo-1,4-thiazinane-4-carbonyl)-6-(3-propan-2-ylpyrrolidin-1-yl)pyridin-2-yl]cyclopropanecarboxamide]
CN1CCN(C(=O)c2ccc(NC(=O)C3CC3)cc2N2CCCC2)C(c2cccc(Cl)c2)C1 (racemic) [Example 171c, N-[4-[2-(3-chlorophenyl)-4-methylpiperazine-1-carbonyl]-3-pyrrolidin-1-ylphenyl]cyclopropanecarboxamide]
